Data: US5436260A, “Angiotensin II receptor antagonists” (Warner-Lambert Company, priority 1994, dated 1995)
Structures can show the parent of a compound that is named as a salt.

Biological target: T1, AT1 receptor (Rattus norvegicus, UniProt P25095)
T1 construct: rat liver membranes; from tissue; host or cells: rat liver membranes
T1 sequence (P25095 1-359): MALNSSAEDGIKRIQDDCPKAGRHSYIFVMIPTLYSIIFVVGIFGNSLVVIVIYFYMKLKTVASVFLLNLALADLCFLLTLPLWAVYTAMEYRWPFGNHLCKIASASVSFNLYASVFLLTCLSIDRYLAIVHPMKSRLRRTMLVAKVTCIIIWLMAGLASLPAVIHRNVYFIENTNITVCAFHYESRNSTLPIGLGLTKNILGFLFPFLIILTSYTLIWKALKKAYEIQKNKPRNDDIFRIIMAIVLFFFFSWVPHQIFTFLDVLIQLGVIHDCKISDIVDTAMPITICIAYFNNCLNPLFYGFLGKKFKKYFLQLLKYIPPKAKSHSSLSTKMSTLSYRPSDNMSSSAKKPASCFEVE
Experiment: [^3 H]angiotensin II binding to rat liver membranes (AT1 test)
Conditions: inhibition of [^3 H]angiotensin II binding
Summary of the method: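 Inhibition of [^3 H]angiotensin II binding to rat liver membranes, run by the Dudley et al. 1990 method.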

Row | IC50 | Structure (SMILES)
1 | > 1000 nM | CCCCc1ncc(/C=C2/C(=O)N(CCCC)C(=O)N2CC(=O)c2ccccc2)n1Cc1ccc(C(=O)OC)cc1 [Example 104, Methyl Z-4-[[2-butyl-5-[[1-butyl-2,5-dioxo-3-(2-oxo-2-phenylethyl)-4-imidazolidinylidene]methyl]-1H-imidazol-1-yl]methyl]benzoate monohydrochloride]
2 | 1.47 nM | CCCCc1ncc(/C=C2/C(=O)N(Cc3cccs3)C(=O)N2Cc2cccs2)n1Cc1ccc(C(=O)O)cc1 [Example 105, Z-4-[[2-Butyl-5-[[2,5-dioxo-1,3-bis(2-thienylmethyl)-4-imidazolidinylidene]methyl]-1H-imidazol-1-yl]methyl]benzoic acid]
3 | 10.1 nM | CCCCc1ncc(/C=C2/C(=O)N(CCCC)C(=O)N2Cc2ccno2)n1Cc1ccc(C(=O)OC)cc1 [Example 106, Methyl Z-4-[[2-butyl-5-[[1-butyl-3-(5-isoxazolyl-methyl)-2,5-dioxo-4-imidazolidinylidene]methyl]-1H-imidazol-1-yl]methyl]benzoate monohydrochloride]
4 | 1450 nM | CCCCc1ncc(/C=C2\NC(=O)N(CCCC(F)(F)F)C2=O)n1Cc1ccc(C(=O)OC)cc1 [Example 107, Methyl Z-4-[[2-butyl-5-[[2,5-dioxo-4,4,4,-(trifluorobutyl)-4-imidazolidinylidene]methyl]-1H-imidazol-1-yl]methyl]benzoate]
5 | 8.47 nM | CCCCc1ncc(/C=C2/C(=O)N(CCCC)C(=O)N2Cc2cc(C)on2)n1Cc1ccc(C(=O)OC)cc1 [Example 108, Methyl Z-4-[[2-butyl-5-[[1-butyl-3-[(5-methyl-3-isoxazolyl)methyl]-2,5-dioxo-4-imidazolidinylidene]methyl]-1H-imidazol-1-yl]methyl]benzoate]
6 | 11.1 nM | CCCCc1ncc(/C=C2/C(=O)N(CC)C(=O)N2Cc2csc(C)n2)n1Cc1ccc(C(=O)OC)cc1 [Example 109, Methyl Z-4-[[2-butyl-5-[[1-ethyl-3-[(2-methyl-4-thiazolyl)methyl]-2,5-dioxo-4-imidazolidinylidene]methyl]-1H-imidazol-1-yl]methyl]benzoate dihydrochloride]
7 | 2.47 nM | CCCCc1ncc(/C=C2/C(=O)N(CCCC)C(=O)N2Cc2csc(C)n2)n1Cc1ccc(C(=O)OC)cc1Cl [Example 110, Methyl Z-4-[[2-butyl-5-[[1-butyl-3-[(2-methyl-4-thiazolyl)methyl]-2,5-dioxo-4-imidazolidinylidene[methyl]-1H-imidazol-1-yl]methyl]-3chloro benzoatemonohydrochloride]
8 | 70 nM | CCCCc1ncc(/C=C2/C(=O)N(CCCC(F)(F)F)C(=O)N2Cc2csc(C)n2)n1Cc1ccc(C(=O)OC)cc1 [Example 111, Methyl Z-4-[[2-Butyl-5-[[3-[(2-methyl-4-thiazoyl)methyl]-2,5-dioxo-1-(4,4,4-trifluorobutyl)-4-imidazolidinylidene]methyl]-1H-imidazol-1-yl]methyl]benzoate dihydrochloride]

The next lines start with the compound.

Row | Structure (SMILES) | IC50
9 | CCCCc1ncc(/C=C2/C(=O)N(CC3CC3)C(=O)N2Cc2cccs2)n1Cc1ccc(C(=O)OC)cc1 [Example 89, Methyl Z-4-[[2-butyl-5-[[1-(cyclopropylmethyl)-2,5-dioxo-3-(2-thienylmethyl)-4-imidazolidinylidene]methyl]-1H-imidazol-1-yl]methyl]benzoiate monohydrochloride] | 2.59 nM
10 | CCCCc1ncc(/C=C2/C(=O)NC(=O)N2CCCC)n1Cc1ccc(-c2ccccc2-c2nn[nH]n2)cc1 [Example 91, Z-1-Butyl-5-[[2-butyl-3-[[2'-(1H-tetrazol-5-yl)[1,1'-biphenyl]-4-yl]methyl]-3H-imidazol-4-yl]methylene]-2,4-imidazolidinedione] | 1.37 nM
11 | CCCCc1ncc(/C=C2\C(=O)NC(=O)N2CCCC)n1Cc1ccc(-c2ccccc2-c2nn[nH]n2)cc1 [Example 92] | 2.72 nM
12 | CCCCc1ncc(/C=C2/C(=O)NC(=O)N2C)n1Cc1ccc(-c2ccccc2-c2nnn[nH]2)cc1 [Example 93, Z-5-[[2-butyl-3-[[2'-(1H-tetrazol-5-yl)[1,1 '-biphenyl]-4-yl]methyl]-3H-imidazol-4-yl]methylene]1-methyl-2,4-imidazolidinedione] | 5.51 nM
13 | CCCCc1ncc(/C=C2\C(=O)NC(=O)N2C)n1Cc1ccc(-c2ccccc2-c2nnn[nH]2)cc1 [Example 94, E-5-[[2-butyl-3-[[2'-(1H-tetrazol-5-yl)[1,1'-biphenyl]-4-yl]methyl]-3H-imidazol-4-yl]methylene]1-methyl-2,4-imidazolidinedione] | 8.57 nM
14 | CCCCc1ncc(CC2C(=O)NC(=O)N2CCCC)n1Cc1ccc(-c2ccccc2-c2nnn[nH]2)cc1 (centres unmarked) [Example 95, 1-Butyl-5-[[2-butyl-3-[[2'-(1H-tetrazol-5-yl)[1,1'-biphenyl]-4yl]methyl]-3H-imidazol-4-yl]methyl]-2,4-imidazolidinedione] | 2.67 nM
15 | CCCCc1ncc(/C=C2/C(=O)NC(=O)N2CCCC)n1Cc1ccc(-c2ccccc2C(=O)OC)cc1 [Example 96a] | 15.9 nM
16 | CCCCc1ncc(/C=C2\C(=O)NC(=O)N2CCCC)n1Cc1ccc(-c2ccccc2C(=O)OC)cc1 [Example 96b, Methyl E 4'-[[2-butyl-5-[(3-butyl-2,5-dioxo-4-imidazolidinylidene)methyl]-1H-imidazol-1-yl]methyl][1,1'-biphenyl]-2-carboxylate] | 9.86 nM
17 | CCCCc1nc(Br)c(/C=C2/C(=O)NC(=O)N2CCCC)n1Cc1ccc(-c2ccccc2C(=O)OC)cc1 [Example 97a, Methyl Z-4'-[[4-bromo-2-butyl-5-[(3-butyl-2,5-dioxo-4-imidazolidinylidene)methyl]-1H-imidazol-1-yl]methyl][1,1'-biphenyl]-2-carboxylate] | 700 nM
18 | CCCCc1nc(Br)c(/C=C2\C(=O)NC(=O)N2CCCC)n1Cc1ccc(-c2ccccc2C(=O)OC)cc1 [Example 97b, Methyl E-4'-[[4-bromo-2-butyl-5-[(3-butyl-2,5-dioxo-4-imidazolidinylidene)methyl]-1H-imidazol-1-yl]methyl][1,1'-biphenyl]-2-carboxylate] | 500 nM
19 | CCCCc1ncc(/C=C(/C(=O)O)N(CCCC)C(=O)NCOC)n1Cc1ccc(C(=O)OC)cc1 [Example 98] | 377 nM
20 | CCCCc1ncc(/C=C2/C(=O)N(CCCC)C(=O)N2Cc2nccn2Cc2ccccc2)n1Cc1ccc(C(=O)OC)cc1 [Example 99] | 135 nM
21 | CCCCc1ncc(/C=C2/C(=O)N(CO)C(=O)N2Cc2csc(C)n2)n1Cc1ccc(C(=O)OC)cc1 [Example 101, Methyl Z-4-[[2-butyl-5-[[1-(hydroxymethyl)-3-[(2-methyl-4-thiazolyl)methyl]-2,5-dioxo-4-imidazolidinylidene]methyl]-1H-imidazol-1-yl]methyl]benzoatedihydrochloride] | 35.7 nM
22 | CCCCc1ncc(/C=C2/C(=O)N(CCCC)C(=O)N2Cc2ccc(-c3ccccc3)cc2)n1Cc1ccc(C(=O)OC)cc1 [Example 102, Methyl Z-4-[[5-[[3-[(1,1'-biphenyl)-4-ylmethyl]-1-butyl-2,5-dioxo-4-imidazolidinylidene]methyl]-2-butyl-1H-imidazol-1-yl]methyl]benzoate] | > 1000 nM
23 | CCCCc1ncc(/C=C2/C(=O)N(CCCC)C(=O)N2CC(=O)c2cccs2)n1Cc1ccc(C(=O)OC)cc1 [Example 103, Methyl Z-4-[[2-butyl-5-[[1-butyl-2,5-dioxo-3-[2-oxo-2-(2-thienyl)ethyl]-4-imidazolidinylidene]methyl]-1H-imidazol-1-yl]methyl]benzoate monochloride] | 120 nM
